Results from PubChem BioAssay (NCI).
Several values for one entry are separate records, joined by “and”; a condition that tells them apart may be missing. Equal entries are not always repeated.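 Where inhibition never reached the appropriate level, the endpoint shown equals the highest concentration tested. Otherwise, values were interpolated linearly from a five-concentration, 48-hour dose response in 96-well plates. At the GI50, growth is halved. TGI: total growth inhibition.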 Where a SMILES comes first, the peptide text is derived from it. [ ]: non-standard residue; d: D form. The star is where a group is joined. ξ: configuration not given here. ξW = NC(Cc1c[nH]c2ccccc12)C(=O)O; X30 = O=C(O)[C@H]1CCC[C@H]1N*; ξF = NC(Cc1ccccc1)C(=O)O; Boc = CC(C)(C)OC(=O)*; ξK = NCCCCC(N)C(=O)O; ξT = CC(O)C(N)C(=O)O; OBn = c1ccc(CO*)cc1; tBu = CC(C)(C)*

Experiments:
Test in all cases: NCI anticancer screen, dose series, 48 h
TK-10 renal = test system: TK-10 renal
MALME-3M melanoma = test system: MALME-3M melanoma
SW-620 colon = test system: SW-620 colon
SNB-19 CNS = test system: SNB-19 CNS
K-562 leukemia = test system: K-562 leukemia
RPMI-8226 leukemia = test system: RPMI-8226 leukemia
MCF7 breast = test system: MCF7 breast
A549 NSCLC = test system: A549 NSCLC
COLO 205 colon = test system: COLO 205 colon
MDA-MB-231 breast = test system: MDA-MB-231 breast
NCI-H23 lung = test system: NCI-H23 lung
A498 renal = test system: A498 renal
HT29 colon = test system: HT29 colon
SNB-75 CNS = test system: SNB-75 CNS
UACC-62 melanoma = test system: UACC-62 melanoma
CAKI-1 renal = test system: CAKI-1 renal
HCC-2998 colon = test system: HCC-2998 colon
SK-OV-3 ovarian = test system: SK-OV-3 ovarian
BT-549 breast = test system: BT-549 breast

Compound	TGI (TK-10 renal)	TGI (MALME-3M melanoma)	TGI (SW-620 colon)	TGI (SNB-19 CNS)	TGI (K-562 leukemia)	TGI (RPMI-8226 leukemia)	TGI (MCF7 breast)	TGI (A549 NSCLC)	TGI (COLO 205 colon)	TGI (MDA-MB-231 breast)	TGI (NCI-H23 lung)	TGI (A498 renal)	TGI (HT29 colon)	TGI (SNB-75 CNS)	TGI (UACC-62 melanoma)	TGI (CAKI-1 renal)	TGI (HCC-2998 colon)	TGI (SK-OV-3 ovarian)	TGI (BT-549 breast)	GI50 (SNB-75 CNS)
CCOC(=O)NC(C(C(=O)OCC)C(=O)OCC)(C(F)(F)F)C(F)(F)F	> 100 µM	> 100 µM	> 100 µM	> 100 µM	> 100 µM	> 100 µM	> 100 µM	> 100 µM	> 100 µM	> 100 µM	> 100 µM	> 100 µM	> 100 µM	> 100 µM	> 100 µM	> 100 µM	–	–	–	–
CCN1C(=O)C(N=[N+]=[N-])(c2ccccc2)C(=O)c2ccccc21 (configuration not stated)	> 100 µM	> 100 µM	> 100 µM	> 100 µM	> 100 µM	> 100 µM	–	> 100 µM	> 100 µM	–	> 100 µM	–	> 100 µM	> 100 µM	> 100 µM	> 100 µM	> 100 µM	> 100 µM	–	–
COC(=O)C1CCC[C@H]2C(CO)=C(C)C(=O)[C@@H]12 (some centres not stated)	> 100 µM	> 100 µM	> 100 µM	> 100 µM	> 100 µM	> 100 µM	–	> 100 µM	> 100 µM	–	> 100 µM	> 100 µM	> 100 µM	> 100 µM	> 100 µM	> 100 µM	> 100 µM	> 100 µM	–	–
O=C1NCC2(CCNCC2)N1	> 100 µM	> 100 µM	> 100 µM	> 100 µM	–	> 100 µM	> 100 µM	> 100 µM	> 100 µM	> 100 µM	> 100 µM	> 100 µM	> 100 µM	> 100 µM	> 100 µM	–	> 100 µM	> 100 µM	–	–
ClCCCC1COc2ccccc2O1 (configuration not stated)	> 100 µM	> 100 µM	> 100 µM	> 100 µM	> 100 µM	–	> 100 µM	> 100 µM	> 100 µM	–	–	–	> 100 µM	> 100 µM	> 100 µM	> 100 µM	> 100 µM	> 100 µM	> 100 µM	–
CCOC(=O)/C(=C/c1ccc(Cl)cc1)N(CC)CC	> 100 µM	> 100 µM	> 100 µM	–	> 100 µM	> 100 µM	–	> 100 µM	> 100 µM	–	> 100 µM	> 100 µM	> 100 µM	> 100 µM	> 100 µM	> 100 µM	> 100 µM	> 100 µM	–	–
COc1ccc(/C(Cl)=C(\CNc2ccccn2)c2ccccc2)cc1OC	> 100 µM	> 100 µM	> 100 µM	> 100 µM	> 100 µM	> 100 µM	–	> 100 µM	> 100 µM	> 100 µM	> 100 µM	> 100 µM	> 100 µM	> 100 µM	> 100 µM	> 100 µM	> 100 µM	> 100 µM	–	–
Nc1ccc(-c2nc3ccc(Cc4ccc5nc(-c6ccc(N)cc6)oc5c4)cc3o2)cc1	> 100 µM	> 100 µM	> 100 µM	> 100 µM	> 100 µM	> 100 µM	> 100 µM	> 100 µM	> 100 µM	> 100 µM	> 100 µM	> 100 µM	> 100 µM	–	> 100 µM	> 100 µM	> 100 µM	> 100 µM	–	–
Nc1ccn(CC(CO)CC(c2ccccc2)P(=O)(O)O)c(=O)n1 (configuration not stated)	> 100 µM	> 100 µM	> 100 µM	> 100 µM	> 100 µM	> 100 µM	–	> 100 µM	> 100 µM	–	> 100 µM	> 100 µM	> 100 µM	28.4 µM and > 100 µM	> 100 µM	> 100 µM	> 100 µM	> 100 µM	–	–
COc1cccc(N2C(=O)[C@H]3[C@H]4CC(C(C)(C)C)CC[C@H]4c4c([nH]c5ccccc45)[C@H]3C2=O)c1 (some centres not stated)	28.8 µM	47.4 µM	41 µM	33.9 µM	29 µM	35 µM	–	29 µM	32.2 µM	–	40.9 µM	–	92.1 µM	30.1 µM	28.3 µM	32.3 µM	> 100 µM	35.3 µM	–	–
CC(C)C(NC(=O)CNC(=O)C1CCCN1C(=O)C(NC(=O)OC(C)(C)C)C(C)C)C(=O)NCC(=O)OCc1ccccc1 (configuration not stated) (Boc-VPGVG-OBn; configuration not given here)	> 100 µM	> 100 µM	> 100 µM	> 100 µM	> 100 µM	> 100 µM	> 100 µM	> 100 µM	> 100 µM	> 100 µM	> 100 µM	> 100 µM	> 100 µM	> 100 µM	> 100 µM	> 100 µM	> 100 µM	> 100 µM	–	35.3 µM and > 100 µM
CC(OC(C)(C)C)C(NC(=O)C(CCCCNC(=O)OC(C)(C)C)NC(=O)C(Cc1c[nH]c2ccccc12)NC(=O)C(N)Cc1ccccc1)C(=O)NC(Cc1ccccc1)C(=O)N[C@@H]1CCC[C@@H]1C(=O)O (some centres not stated) (H-[ξF][ξW][ξK](Boc)[ξT](tBu)[ξF]-X30)	–	> 100 µM	> 100 µM	51.2 µM	> 100 µM	> 100 µM	62.5 µM	> 100 µM	76.2 µM	> 100 µM	> 100 µM	–	80.3 µM	> 100 µM	85.5 µM	> 100 µM	41.1 µM	> 100 µM	–	–
Cc1ccc(C(O)/C(=N/N)c2nc3ccc([N+](=O)[O-])cc3[nH]c2=O)cc1 (configuration not stated)	> 100 µM	> 100 µM	> 100 µM	> 100 µM	> 100 µM	> 100 µM	–	> 100 µM	> 100 µM	–	> 100 µM	–	> 100 µM	> 100 µM	> 100 µM	–	> 100 µM	> 100 µM	–	–
CCOc1ccc(N=Nc2c(-c3ccccc3)nn(C(=O)CC(=O)Nc3cccc(C)c3)c2-c2ccccc2)cc1	> 100 µM	> 100 µM	> 100 µM	> 100 µM	> 100 µM	> 100 µM	–	> 100 µM	> 100 µM	–	> 100 µM	–	> 100 µM	> 100 µM	> 100 µM	> 100 µM	> 100 µM	> 100 µM	–	–
